Data reported in publication PMC12858405, “Ideal efficacy photoswitching for chromocontrol of TRPC4/5 channel functions in live tissues” (Nature Chemical Biology, 2026).

Molecular target: T1, mouse TRPC4β (Mus musculus, UniProt Q9QUQ5)
T1 construct: expressed in transfected cells; host or cells: HEK293 (ATCC CRL 1573), stably transfected, tetracycline-induced
T1 sequence (Q9QUQ5 1-890 isoform Q9QUQ5-2): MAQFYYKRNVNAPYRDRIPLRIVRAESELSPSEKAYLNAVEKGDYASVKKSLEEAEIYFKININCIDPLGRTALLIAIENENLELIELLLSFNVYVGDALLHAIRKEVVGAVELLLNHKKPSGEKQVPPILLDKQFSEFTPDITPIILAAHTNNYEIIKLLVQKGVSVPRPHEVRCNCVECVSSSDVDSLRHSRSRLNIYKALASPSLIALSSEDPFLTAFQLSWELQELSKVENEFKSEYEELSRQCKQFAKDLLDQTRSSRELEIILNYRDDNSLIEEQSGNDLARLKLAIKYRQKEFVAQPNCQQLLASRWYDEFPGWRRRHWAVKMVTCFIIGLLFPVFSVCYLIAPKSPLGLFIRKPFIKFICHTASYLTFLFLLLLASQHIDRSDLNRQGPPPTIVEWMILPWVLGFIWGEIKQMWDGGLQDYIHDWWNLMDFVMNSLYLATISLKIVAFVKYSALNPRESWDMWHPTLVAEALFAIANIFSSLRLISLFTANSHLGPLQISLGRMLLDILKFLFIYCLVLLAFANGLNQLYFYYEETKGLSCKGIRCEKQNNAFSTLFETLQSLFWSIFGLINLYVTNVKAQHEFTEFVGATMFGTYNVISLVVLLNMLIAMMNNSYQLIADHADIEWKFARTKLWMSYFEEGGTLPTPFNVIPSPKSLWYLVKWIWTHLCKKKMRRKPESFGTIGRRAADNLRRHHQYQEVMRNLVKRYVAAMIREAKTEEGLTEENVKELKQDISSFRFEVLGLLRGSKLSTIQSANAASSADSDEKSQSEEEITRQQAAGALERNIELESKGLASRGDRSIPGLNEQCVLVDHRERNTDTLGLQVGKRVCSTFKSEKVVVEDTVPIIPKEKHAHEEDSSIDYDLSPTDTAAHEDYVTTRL
Assay: FLIPR Ca2+ influx assay (Fluo-4) with 365/447 nm photoswitching, HEK293 stably expressing mouse TRPC4β
Format: cell-based
Conditions: for EC50: Z* = mostly-Z PSS under 365 nm LED, Fluo-4-loaded cells, read-out: Agonistic EC50 (365 nm) TRPC4
Excerpt: We initially screened for the photoswitchability of activity in cells using a fluorometric imaging plate reader (FLIPR) calcium flux assay, with HEK293 cells stably expressing mouse TRPC4β or mouse TRPC5. Note, however, that the parallel-throughput FLIPR setup is limited to use fixed light-emitting diodes at 365 nm (good Z) and 447 nm (suboptimal E), which, combined with the slowness of the onset and recovery of the fluorescence readout for calcium, causes the FLIPR results to underestimate the reagents’ true speed, degree and completion of TRPC chromocontrol (shown later). […]
3 Cultured Cell Lines (primarily for Fig. 1 and Fig. 2)
3.1 FLIPR Ca2+ influx assay in cell suspensions.
We initially screened for photoswitchability of activity in cells, using a fluorometric imaging plate reader (FLIPR) calcium flux assay, with human embryonic kidney cell line HEK293 stably transfected to express mouse TRPC4β- or TRPC5-CFP fusion protein (HEKmTRPC4β-CFP / HEKmTRPC5-CFP, HEK293 obtained from ATCC CRL 1573). The FLIPR setup provides high-content data, but it is limited to using LED wavelengths of 365 nm (best-Z) and 447 nm (suboptimal-E), while imaging at 470 nm excitation (Fluo-4 AM as Ca2+ indicator; this imaging light counteracts both PSSs). Therefore, we expected the FLIPR results to under-estimate the true chromocontrol power accessible to the reagents.
Cells were grown to 70%-90% confluency in a 75-cm2 culture flask, trypsinised, washed and resuspended in BSA-containing (0.1%) HBS, and supplemented with 3 µM Fluo-4/AM. Stably TRPC-transfected cells were induced with tetracycline 24 h prior to the experiments.42,43 After incubation at 37°C for 30 min [Fluo-4 loading], cells were again washed, resuspended, and dispensed (40 µl/well) into black pigmented, clear-bottom 384-well plates (Greiner µ-clear). To image the Fluo-4 fluorescence during the application and photoswitching of test compounds, these plates were first mounted to a Tecan Fluent 480 (Tecan, Männedorf, Switzerland) liquid handling device, equipped with a 384-tip multichannel arm and a gripper arm. A custom-made plate-imaging device was used for photoswitching during fluorescence imaging, which features LED-based excitation modules (365 nm and 447 nm used here for photoswitching, and 470 nm used here for Fluo-4 readout) projected onto the bottom of the microwell plate, with a cooled scientific complementary metal oxide sensor (sCMOS) camera (Zyla 5.5, Andor, Belfast, UK) equipped with a Nokton 42.5 mm f/0.95 (Voigtlaender, Fürth, Germany) for detection. The LEDs were controlled with an Arduino device and constant current drivers (1 A for 365 and 470 nm LEDs; 3 A for 447 nm LED); detection was under the control of Micromanager 2.0 software. Compounds were serially diluted and applied to the Fluo-4-loaded cell suspensions inside this custom plate-imaging device, then fluorescence intensities (under 470 nm excitation) were continuously recorded during programmed illuminations e.g. with alternating 365 nm and 447 nm phases.
Concentration-response curves for the Z-isomers (channel activation) were then constructed from the maximal signals during 365 nm phases, after a suitable number of "priming" cycles to allow the system to reach stable performance (Supplementary Fig. 13).
All experiments were conducted as a minimum of 3 independent experiments with each experiment averaging data in technical duplicates.
Cellular TRPC4 photoswitching: HEK cell Ca2+ influx photomodulation […]
Supplementary Figure 12. […]

Effect of E isomer alone on TRPC4 (12 pM to […], before 365-nm illumination) | SMILES | EC50 | Activity of Z isomer on TRPC4 (into the micromolar range, 365 nm)
– | Cn1c(=O)n(CCCO)c(=O)c2c1nc(Oc1ccc(N=Nc3ccccc3)c(OC(F)(F)F)c1)n2Cc1ccc(Cl)cc1 [AzPico] | 3 nM | –
no effect | Cn1c(=O)n(CCCO)c(=O)c2c1nc(Oc1ccc(/N=N/c3ccccc3)c(OC(F)(F)F)c1)n2Cc1ccc(Cl)cc1 [E-AzPico] | – | –
– | Cn1c(=O)n(CCCO)c(=O)c2c1nc(Oc1ccc(/N=N\c3ccccc3)c(Cl)c1)n2Cc1ccc(Cl)cc1 [Z*-AzHC] | > 1000 nM | completely inactive
